Source: publication PMC5458547, “Discovery of first-in-class reversible dual small molecule inhibitors against G9a and DNMTs in hematological malignancies” (Nature Communications, 2017)

Key:
SK-MEL-19 = assay: Cell proliferation assay (MTS); type: cell-based; conditions: Homo sapiens, SK-MEL19; Melanoma
HCC95 = assay: Cell proliferation assay (MTS); type: cell-based; conditions: Homo sapiens, SCLC
PRMT3 = biological target: T1, PRMT3 (Homo sapiens, UniProt O60678); assay: Epigenetics selectivity panel (BPS Bioscience); type: biochemical
T1 construct: purchased DiscoverX KINOMEscan (kinases); BPS Bioscience (epigenetic targets)

PRMT4 = biological target: T2, PRMT4 (Homo sapiens, UniProt Q86X55); assay: Epigenetics selectivity panel (BPS Bioscience); type: biochemical
T2 construct: purchased DiscoverX KINOMEscan (kinases); BPS Bioscience (epigenetic targets)

SK-MEL-28 = assay: Cell proliferation assay (MTS); type: cell-based; conditions: Homo sapiens, Melanoma
1205-LU = assay: Cell proliferation assay (MTS); type: cell-based; conditions: Homo sapiens, Melanoma
ATAD2A = biological target: T3, ATAD2A (Homo sapiens, UniProt Q6PL18); assay: Epigenetics selectivity panel (BPS Bioscience); type: binding
T3 construct: purchased DiscoverX KINOMEscan (kinases); BPS Bioscience (epigenetic targets)

MGH-U4 = assay: Cell proliferation assay (MTS); type: cell-based; conditions: Homo sapiens; Bladder
SUV39H2 = biological target: T4, SUV39H2 (Homo sapiens, UniProt Q9H5I1); assay: Epigenetics selectivity panel (BPS Bioscience); type: biochemical
T4 construct: purchased DiscoverX KINOMEscan (kinases); BPS Bioscience (epigenetic targets)

U87-MG = assay: Cell proliferation assay (MTS); type: cell-based; conditions: Homo sapiens, U-87 MG; Glioblastoma
Human HDAC6 = biological target: T5, Human HDAC6 (Homo sapiens, UniProt Q9UBN7); assay: HDAC6 enzyme activity assay; type: biochemical
T5 construct: purchased DiscoverX KINOMEscan (kinases); BPS Bioscience (epigenetic targets)

PRMT5 = biological target: T6, PRMT5 (Homo sapiens, UniProt O14744); assay: Epigenetics selectivity panel (BPS Bioscience); type: biochemical
T6 construct: purchased DiscoverX KINOMEscan (kinases); BPS Bioscience (epigenetic targets)

JJN3 = assay: Cell proliferation assay (MTS); type: cell-based; conditions: Homo sapiens, JJN-3; MM
SUV39H1 = biological target: T7, SUV39H1 (Homo sapiens, UniProt O43463); assay: Epigenetics selectivity panel (BPS Bioscience); type: biochemical
T7 construct: purchased DiscoverX KINOMEscan (kinases); BPS Bioscience (epigenetic targets)

A549 = assay: Cell proliferation assay (MTS); type: cell-based; conditions: Homo sapiens, NSCLC
Human HDAC1 = biological target: T8, Human HDAC1 (Homo sapiens, UniProt Q13547); assay: HDAC1 enzyme activity assay; type: biochemical
T8 construct: purchased DiscoverX KINOMEscan (kinases); BPS Bioscience (epigenetic targets)

OCI-AML-2 = assay: Cell proliferation assay (MTS); type: cell-based, human; conditions: Homo sapiens, OCI-AML2; AML, 48 h; read-out: GI50
OPM2 = assay: Cell proliferation assay (MTS); type: cell-based; conditions: Homo sapiens, OPM-2; MM
in vitro = type: cell-based; conditions: human
Experimental: Cell viability was determined by measuring the concentration of cellular adenosine triphosphate (ATP) using the ATP1Step Kit as described by the manufacturer (Perkin-Elmer). PBMCs were isolated following the regular density gradient centrifugation procedure with Ficoll. Details are provided in Supplementary Information. […]
each test plate followed by incubation for 10 min at room temperature on an orbital shaker. ATP concentration was determined by reading chemical luminescence using the Envision plate reader (PerkinElmer). The percentage of viable cells relative to the non-drug treated controls was determined for […]
Cells were plated in 96-well black microplates at 100,000 cells/well density with DMEM medium (containing 10% FBS and antibiotics) and were incubated at 37 °C (5% CO2, 95% humidity) for 24 h. […] Following this 72 h exposure to test compounds, cell viability in each well was determined by measuring the concentration of cellular adenosine triphosphate (ATP) using the ATP1Step Kit as described by the manufacturer (Perkin-Elmer). […] ATP concentration was determined by reading chemical luminescence using the Envision plate reader (PerkinElmer). […]
sampler temperature was set at 7 °C and column temperature at 50 °C. For detection and quantification, the electrospray ionization operated in the positive mode, and the collision gas used was ultra-pure argon at a flow rate of 0.15 mL min−1. […]

[1] = Liver microsomal stability; type: in vitro ADME; conditions: mouse, mouse liver microsomes; read-out: Liver Microsomal Stability. Estimation T1/2
MV4-11 = assay: Cell proliferation assay (MTS); type: cell-based; conditions: Homo sapiens, MV4-11; AML, 48 h; read-out: GI50
MOLT-4 = assay: Cell proliferation assay (MTS); type: cell-based; conditions: Homo sapiens, ALL, 48 h

T1 sequence (O60678 whole entry): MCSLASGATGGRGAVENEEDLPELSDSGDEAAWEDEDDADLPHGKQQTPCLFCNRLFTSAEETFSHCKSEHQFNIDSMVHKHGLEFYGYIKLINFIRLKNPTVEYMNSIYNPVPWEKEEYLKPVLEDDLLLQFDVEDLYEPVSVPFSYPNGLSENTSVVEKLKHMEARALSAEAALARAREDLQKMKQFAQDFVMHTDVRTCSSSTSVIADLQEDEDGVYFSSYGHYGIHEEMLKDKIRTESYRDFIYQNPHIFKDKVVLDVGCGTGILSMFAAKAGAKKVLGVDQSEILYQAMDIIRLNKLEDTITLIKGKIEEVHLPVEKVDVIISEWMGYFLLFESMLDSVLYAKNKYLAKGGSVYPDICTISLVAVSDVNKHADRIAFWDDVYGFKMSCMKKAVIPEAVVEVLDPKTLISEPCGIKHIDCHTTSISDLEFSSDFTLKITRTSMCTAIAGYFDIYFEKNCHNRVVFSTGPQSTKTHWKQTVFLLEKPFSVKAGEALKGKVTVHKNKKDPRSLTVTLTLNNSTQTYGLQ
T2 sequence (Q86X55 whole entry): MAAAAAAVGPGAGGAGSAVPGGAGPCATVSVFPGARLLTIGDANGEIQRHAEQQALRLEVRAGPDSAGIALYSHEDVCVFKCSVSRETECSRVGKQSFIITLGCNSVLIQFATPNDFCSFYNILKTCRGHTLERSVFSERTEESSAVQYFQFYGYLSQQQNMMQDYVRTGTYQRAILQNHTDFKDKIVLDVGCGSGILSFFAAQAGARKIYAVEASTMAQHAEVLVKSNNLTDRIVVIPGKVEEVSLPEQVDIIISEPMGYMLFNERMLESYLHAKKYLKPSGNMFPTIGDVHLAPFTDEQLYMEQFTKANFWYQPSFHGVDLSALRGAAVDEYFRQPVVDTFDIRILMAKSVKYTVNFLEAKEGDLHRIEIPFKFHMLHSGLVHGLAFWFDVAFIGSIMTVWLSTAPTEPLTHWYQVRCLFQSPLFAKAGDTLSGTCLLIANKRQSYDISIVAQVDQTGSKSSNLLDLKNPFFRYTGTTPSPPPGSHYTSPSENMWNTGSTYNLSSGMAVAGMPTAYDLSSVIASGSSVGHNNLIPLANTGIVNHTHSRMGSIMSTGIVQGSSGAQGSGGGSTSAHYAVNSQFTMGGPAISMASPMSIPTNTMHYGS
T8 sequence (Q13547 whole entry): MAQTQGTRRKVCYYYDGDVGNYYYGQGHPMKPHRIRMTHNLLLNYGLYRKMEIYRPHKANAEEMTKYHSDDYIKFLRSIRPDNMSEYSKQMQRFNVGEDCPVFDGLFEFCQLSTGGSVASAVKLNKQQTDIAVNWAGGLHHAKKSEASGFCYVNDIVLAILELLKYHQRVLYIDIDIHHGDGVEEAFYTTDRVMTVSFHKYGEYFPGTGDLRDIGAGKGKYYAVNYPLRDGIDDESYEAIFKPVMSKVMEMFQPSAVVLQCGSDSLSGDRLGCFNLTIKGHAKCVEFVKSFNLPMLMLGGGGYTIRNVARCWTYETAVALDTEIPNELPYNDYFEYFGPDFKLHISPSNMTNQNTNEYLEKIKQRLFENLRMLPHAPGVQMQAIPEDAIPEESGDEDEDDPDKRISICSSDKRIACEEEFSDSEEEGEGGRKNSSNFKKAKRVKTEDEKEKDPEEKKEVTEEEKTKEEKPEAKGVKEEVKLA
T6 sequence (O14744 whole entry): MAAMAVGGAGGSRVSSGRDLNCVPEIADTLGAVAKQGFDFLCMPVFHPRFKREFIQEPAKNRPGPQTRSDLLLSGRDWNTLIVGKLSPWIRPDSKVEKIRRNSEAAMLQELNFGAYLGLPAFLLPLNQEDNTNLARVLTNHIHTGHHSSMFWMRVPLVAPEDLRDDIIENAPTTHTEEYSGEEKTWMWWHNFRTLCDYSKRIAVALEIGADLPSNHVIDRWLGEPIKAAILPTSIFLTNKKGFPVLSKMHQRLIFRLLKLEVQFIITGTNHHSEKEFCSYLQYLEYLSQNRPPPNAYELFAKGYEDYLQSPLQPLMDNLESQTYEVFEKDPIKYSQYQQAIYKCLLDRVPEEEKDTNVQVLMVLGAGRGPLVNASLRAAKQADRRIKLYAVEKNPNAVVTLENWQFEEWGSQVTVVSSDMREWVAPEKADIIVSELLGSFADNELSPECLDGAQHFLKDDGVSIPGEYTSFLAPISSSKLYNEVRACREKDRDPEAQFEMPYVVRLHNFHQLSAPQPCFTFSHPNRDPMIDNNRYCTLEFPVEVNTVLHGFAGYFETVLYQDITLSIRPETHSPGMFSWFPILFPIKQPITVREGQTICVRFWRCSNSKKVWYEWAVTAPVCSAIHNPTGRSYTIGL
T6 sequence (Q9BQA1 whole entry partner): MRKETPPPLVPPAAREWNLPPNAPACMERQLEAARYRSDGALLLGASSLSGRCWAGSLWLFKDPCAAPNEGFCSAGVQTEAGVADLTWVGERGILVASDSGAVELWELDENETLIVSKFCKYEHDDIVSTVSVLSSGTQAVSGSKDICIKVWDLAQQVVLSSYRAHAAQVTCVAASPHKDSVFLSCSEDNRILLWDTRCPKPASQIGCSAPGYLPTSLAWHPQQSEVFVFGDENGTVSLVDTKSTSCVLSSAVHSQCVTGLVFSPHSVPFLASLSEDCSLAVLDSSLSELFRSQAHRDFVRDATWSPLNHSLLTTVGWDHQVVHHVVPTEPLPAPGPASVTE
T5 sequence (Q9UBN7 whole entry): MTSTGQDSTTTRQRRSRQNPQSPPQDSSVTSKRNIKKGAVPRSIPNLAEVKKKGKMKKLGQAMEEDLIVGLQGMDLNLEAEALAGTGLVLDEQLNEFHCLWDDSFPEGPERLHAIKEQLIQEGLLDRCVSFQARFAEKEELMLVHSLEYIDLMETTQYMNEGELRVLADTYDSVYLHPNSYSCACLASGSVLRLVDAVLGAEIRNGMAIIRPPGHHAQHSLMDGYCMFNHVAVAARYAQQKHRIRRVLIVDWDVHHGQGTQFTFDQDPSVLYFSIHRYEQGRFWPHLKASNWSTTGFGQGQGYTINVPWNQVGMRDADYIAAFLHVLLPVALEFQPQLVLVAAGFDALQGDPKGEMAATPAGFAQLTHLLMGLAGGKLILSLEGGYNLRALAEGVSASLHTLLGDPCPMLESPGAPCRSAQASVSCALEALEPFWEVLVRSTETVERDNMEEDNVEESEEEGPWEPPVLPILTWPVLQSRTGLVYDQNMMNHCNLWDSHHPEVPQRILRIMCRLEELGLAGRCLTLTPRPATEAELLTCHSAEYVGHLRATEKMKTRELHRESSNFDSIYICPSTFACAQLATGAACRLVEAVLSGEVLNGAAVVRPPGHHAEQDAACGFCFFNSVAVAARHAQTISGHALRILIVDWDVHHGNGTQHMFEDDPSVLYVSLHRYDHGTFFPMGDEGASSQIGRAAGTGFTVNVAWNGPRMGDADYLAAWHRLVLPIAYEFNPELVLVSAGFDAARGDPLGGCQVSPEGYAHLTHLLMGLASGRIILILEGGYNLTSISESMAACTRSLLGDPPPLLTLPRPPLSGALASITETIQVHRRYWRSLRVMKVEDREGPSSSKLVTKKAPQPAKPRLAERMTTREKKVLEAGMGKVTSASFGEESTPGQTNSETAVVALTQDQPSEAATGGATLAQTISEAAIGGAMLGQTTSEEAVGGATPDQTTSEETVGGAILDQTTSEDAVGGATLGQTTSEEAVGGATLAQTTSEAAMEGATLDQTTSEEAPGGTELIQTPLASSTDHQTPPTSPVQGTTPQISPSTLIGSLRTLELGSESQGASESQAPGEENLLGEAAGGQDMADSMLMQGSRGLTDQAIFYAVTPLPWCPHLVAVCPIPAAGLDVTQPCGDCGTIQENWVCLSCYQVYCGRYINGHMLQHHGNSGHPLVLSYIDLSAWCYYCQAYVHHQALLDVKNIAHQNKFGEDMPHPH
T7 sequence (O43463 whole entry): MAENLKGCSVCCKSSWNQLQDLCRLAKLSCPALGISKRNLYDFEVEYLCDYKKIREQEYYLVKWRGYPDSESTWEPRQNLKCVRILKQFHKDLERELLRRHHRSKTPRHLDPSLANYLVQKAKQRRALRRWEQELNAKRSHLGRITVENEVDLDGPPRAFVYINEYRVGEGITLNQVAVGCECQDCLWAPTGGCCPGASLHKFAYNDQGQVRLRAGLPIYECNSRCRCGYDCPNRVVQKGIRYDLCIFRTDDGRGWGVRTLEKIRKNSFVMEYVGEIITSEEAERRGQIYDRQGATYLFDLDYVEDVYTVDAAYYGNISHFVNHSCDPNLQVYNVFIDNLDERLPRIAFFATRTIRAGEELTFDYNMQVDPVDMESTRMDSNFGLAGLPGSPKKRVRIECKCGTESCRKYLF
T4 sequence (Q9H5I1 whole entry): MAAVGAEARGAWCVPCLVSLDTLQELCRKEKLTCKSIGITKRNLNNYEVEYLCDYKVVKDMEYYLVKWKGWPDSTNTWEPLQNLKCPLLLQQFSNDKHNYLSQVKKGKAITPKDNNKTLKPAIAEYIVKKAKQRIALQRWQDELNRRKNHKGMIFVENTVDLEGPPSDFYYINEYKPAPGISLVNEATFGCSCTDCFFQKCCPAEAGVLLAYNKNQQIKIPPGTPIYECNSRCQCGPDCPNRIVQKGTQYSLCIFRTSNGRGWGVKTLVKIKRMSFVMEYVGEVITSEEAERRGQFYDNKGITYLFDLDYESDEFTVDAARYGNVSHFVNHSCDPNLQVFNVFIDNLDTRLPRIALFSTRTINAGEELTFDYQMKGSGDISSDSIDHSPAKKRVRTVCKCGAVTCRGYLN

| Structure (SMILES) | GI50 (SK-MEL-19) [nM] | GI50 (HCC95) [nM] | inhibition at 10 µM (PRMT3) [%] | inhibition at 10 µM (PRMT4) [%] | GI50 (SK-MEL-28) [nM] | GI50 (1205-LU) [nM] | inhibition at 10 µM (ATAD2A) [%] | GI50 (MGH-U4) [nM] | inhibition at 10 µM (SUV39H2) [%] | GI50 (U87-MG) [nM] | inhibition at 10 µM (Human HDAC6) [%] | inhibition at 10 µM (PRMT5) [%] | GI50 (JJN3) [nM] | inhibition at 10 µM (SUV39H1) [%] | GI50 (A549) [nM] | inhibition at 10 µM (Human HDAC1) [%] | GI50 (OCI-AML-2) [nM] | GI50 (OPM2) [nM] | CC50 at 72 h (in vitro) [nM] | half-life at 1 µM [1] [min] | further results |
| --- | --- | --- | --- | --- | --- | --- | --- | --- | --- | --- | --- | --- | --- | --- | --- | --- | --- | --- | --- | --- | --- |
| COc1cc2c(NC3CCN(C)CC3)cc(-c3ccc(C)o3)nc2cc1OCCCN1CCCC1 [CM-272, 6-methoxy-2-(5-methyl-2-furyl)-N-(1-methyl-4-piperidyl)-7-(3-pyrrolidin-1-ylpropoxy)quinolin-4-amine] | 1040 | 751 | 7 | 5 | 874 | 121 | 0 | 725 | 4 | 294 | 0 | 6 | 1320 | 1 | 937 | 0 | 256 | 2610 | 1900 | 35.2 | GI50 (MV4-11): 269 nM; GI50 (MOLT-4): > 5000 nM |
| COc1cc2c(NCC3CCN(C)CC3)cc(-c3ccc(C)o3)nc2cc1OCCCN1CCCC1 [CM-579, 6-methoxy-2-(5-methyl-2-furyl)-N-[(1-methyl-4-piperidyl)methyl]-7-(3-pyrrolidin-1-ylpropoxy)quinolin-4-amine] | 161 | 613 | 5 | 6 | 1390 | 20 | 0 | 173 | 0 | 118 | 0 | 0 | 4350 | 2 | 122 | 0 | 490 | > 5000 | 7390 | 10.7 | GI50 (MV4-11): 385 nM; GI50 (MOLT-4): > 10000 nM |
